Data on 14 compounds can be found in ChEMBL document CHEMBL5365534, “Discovery of a Novel Ketohexokinase Inhibitor with Improved Drug Distribution in Target Tissue for the Treatment of Fructose Metabolic Disease” (J Med Chem, 2023).

Converted amounts (≈) assume the structure as drawn.

For data set [1], the target named is T1, Ketohexokinase (Homo sapiens, UniProt P50053).
T1 sequence (P50053 whole entry): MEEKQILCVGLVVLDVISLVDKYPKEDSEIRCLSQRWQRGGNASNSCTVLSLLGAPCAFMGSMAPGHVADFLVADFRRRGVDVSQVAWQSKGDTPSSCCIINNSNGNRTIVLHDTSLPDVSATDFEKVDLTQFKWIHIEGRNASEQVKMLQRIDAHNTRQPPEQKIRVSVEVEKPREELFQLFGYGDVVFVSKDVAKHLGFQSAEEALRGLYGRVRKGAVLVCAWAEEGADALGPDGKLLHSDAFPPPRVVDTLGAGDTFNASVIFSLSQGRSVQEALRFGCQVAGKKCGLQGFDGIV

Data set [2] is described as follows: in vitro. The settings on record: rat, liver microsomes. For orientation: Liver microsomes are a subcellular fraction often used to study metabolism.
Data set [3] can be described thus: in vitro. Particulars: human, liver microsomes.
Data set [4] is described as follows: in vitro. The settings on record: dog, liver microsomes.
A short description of data set [5]: in vitro. Particulars: human, Caco-2.
Data set [6] in a line: physchem.
Data set [7] is described as follows: in vitro. Particulars: human, Caco-2. The source holds these as a separate data set.
The nature of data set [8]: physchem. The settings on record: buffer, pH 7.4.

What is called IC50 is the concentration needed to halve the response being measured. Lower therefore signals inhibition by little substance. With `C[C@H]1CCN1c1nc(N2CCC(C)(CC(=O)O)C2)cc(C(F)(F)F)c1C#N` (some centres not stated), the Kinetic_solubility entry is listed as “Not Determined(Insoluble)”. For the same compound, in [1], the half-maximal inhibitory concentration (IC50) was > 1000 nM.

Consider `C[C@H]1CCN1c1nc(N2CC[C@H](CCC(=O)O)C2)c2c(n1)C(F)(F)CCC2`, for which the Kinetic_solubility entry is recorded as “Not Determined(Insoluble)”. Half-maximal inhibition in data set [1] (IC50) was put at 89.5 nM.

The term microsomal CLint denotes a measure of how fast metabolising enzymes remove a compound, apart from limits set by blood flow. Higher therefore signals faster metabolism. On to `C[C@H]1CCN1c1nc(N2CCC3(CC(C(=O)O)C3)C2)cc(C(F)(F)F)c1C#N` (some centres not stated), for which the intrinsic clearance (microsomal CLint) at 2 h, 1 µM stood at 4.5 µL/min/mg in data set [2], 6.2 µL/min/mg in data set [3] and 5.5 µL/min/mg in data set [4].

Broadly, the Papp A→B is the apparent permeability from the apical to the basolateral side of a cell layer. A high value points to ready permeation. In general, solubility (kinetic) refers to the concentration staying in solution when a stock, usually in DMSO, is diluted into the medium. The efflux ratio is the permeability from basolateral to apical divided by that in the opposite direction, in the common usage. What is called logD is lipophilicity at a set pH, counting ionised and neutral species. High values mean a more lipophilic compound, low ones a more hydrophilic compound. The compound `O=C(O)CC[C@H]1CCN(c2nc(N3CC[C@@H]3C(F)(F)F)nc3c2CCC3(F)F)C1` displayed a microsomal CLint at 2 h, 1 µM in [2] of 64.6 µL/min/mg. The apparent permeability from apical to basolateral (Papp A→B) at 2 h, 10 µM in data set [5] turned out to be 5.14 ×10⁻⁶ cm/s. Also, in [6], the kinetic solubility was > 1000 µM. The efflux ratio in data set [7] is 7.81. In addition, the log distribution coefficient (logD) in [8] amounted to 0.86. The same compound came in with an IC50 in [1] of 25.9 nM.

In the case of `C[C@H]1CCN1c1nc(N2CC[C@H](CC(=O)O)C2)c2c(n1)C(F)(F)CC2`, the apical-to-basolateral permeability (Papp A→B) at 2 h, 10 µM in data set [5] worked out at 1.47 ×10⁻⁶ cm/s. Also, the kinetic solubility in [6] amounted to 999 µM (≈ 352 µg/mL). For the same compound, the efflux ratio in data set [7] was determined as 11.2. In addition, in [8], the logD came out at 0.01. This compound also had an IC50 in [1] of 49 nM.

Compound `C[C@H]1CCN1c1nc(N2C[C@H]3CC[C@H](C(=O)O)[C@H]3C2)c2c(n1)C(F)(F)CC2` (racemic) displayed a Papp A→B at 2 h, 10 µM in [5] of 6.13 ×10⁻⁶ cm/s. Moreover, the solubility (kinetic) in data set [6] was > 1000 µM. Besides, the efflux ratio in data set [7] came out at 4.54. The compound also displayed a log distribution coefficient (logD) in [8] of 0.58. In data set [1], this compound showed an IC50 of 34.7 nM.

Take `C[C@H]1CCN1c1nc(N2CC(CC(=O)O)C(F)(F)C2)cc(C(F)(F)F)c1C#N` (some centres not stated): the Papp A→B at 2 h, 10 µM in [5] worked out at 10.9 ×10⁻⁶ cm/s. For the same compound, the solubility (kinetic) in data set [6] is > 1000 µM. Besides, the efflux ratio in data set [7] worked out at 2.48. Further, the logD in data set [8] amounted to 1.48. The compound also returned an IC50 in data set [1] of 108 nM.

In [5], `C[C@H]1CCN1c1nc(N2C[C@@H](CC(=O)O)[C@H](O)C2)cc(C(F)(F)F)c1C#N` (racemic) showed a Papp A→B at 2 h, 10 µM of 0.09 ×10⁻⁶ cm/s. In addition, the kinetic solubility in [6] was determined as 889 µM (≈ 342 µg/mL). Besides, the efflux ratio in data set [7] came out at 218. The compound also registered a logD in [8] of 0.93. In addition, 138 nM corresponded to half-maximal inhibition in data set [1] (IC50).

`C[C@H]1CCN1c1nc(N2C[C@H]3CC[C@H](C(=O)O)[C@H]3C2)cc(C(F)(F)F)c1C#N` (racemic) displayed a Papp A→B at 2 h, 10 µM in data set [5] of 18.3 ×10⁻⁶ cm/s. Further, the kinetic solubility in [6] came out at 230 µM (≈ 90.5 µg/mL). The microsomal CLint at 2 h, 1 µM in data set [3] is 10.4 µL/min/mg. The efflux ratio in [7] came out at 1.13. Also, in data set [8], the pH-dependent lipophilicity (logD) turned out to be 2.31. It took 21.9 nM to reach half-maximal inhibition in data set [1] (IC50).

Take `O=C(O)CC[C@H]1CCN(c2nc(N3CC4CCCC43)nc3c2CCC3(F)F)C1` (some centres not stated): the Kinetic_solubility result is on record as “Not Determined(Insoluble)”. Further, in [1], the IC50 is > 1000 nM.

In the case of `C[C@H]1CCN1c1nc(N2CCC3(CC3C(=O)O)C2)cc(C(F)(F)F)n1` (some centres not stated), the Kinetic_solubility result is “Not Determined(Insoluble)”. Also, the half-inhibitory concentration (IC50) in data set [1] was > 1000 nM.

As for `C[C@H]1CCN1c1nc(N2CCC3(CC3C(=O)O)C2)cc(C(F)(F)F)c1C#N` (some centres not stated), the microsomal CLint at 2 h, 1 µM in data set [2] is 5.6 µL/min/mg; in data set [3] it was 4.6 µL/min/mg. Also, in data set [5], the apparent permeability from apical to basolateral (Papp A→B) at 2 h, 10 µM is 16.2 ×10⁻⁶ cm/s. Besides, in data set [6], the solubility (kinetic) is > 1000 µM. In data set [7], the efflux ratio is 1.78. In data set [8], the logD came out at 1.73. Also, the IC50 in [1] is 108 nM.

`C[C@H]1CCN1c1nc(N2CC[C@H](OCC(=O)O)C2)c2c(n1)C(F)(F)CC2` had an apical-to-basolateral permeability (Papp A→B) at 2 h, 10 µM in [5] of 0.23 ×10⁻⁶ cm/s. For the same compound, in data set [6], the solubility (kinetic) was > 1000 µM. The efflux ratio in data set [7] turned out to be 19.9. The logD in data set [8] is -1.1. The 50% inhibitory concentration (IC50) in data set [1] was 53.9 nM.

On to `C[C@H]1CCN1c1nc(N2CC[C@H](CCC(=O)O)C2)cc(C(F)(F)F)n1`, for which the Kinetic_solubility result was “Not Determined(Insoluble)”. The compound also returned a half-maximal inhibitory concentration (IC50) in data set [1] of 849 nM.
